Measured values as given in paper PMC12566971, “Polyprenylated Acylphloroglucinols from Hypericum rochelii and Hypericum olympicum—Cytotoxic Effects on Non-Tumorigenic Cell Lines and Antibacterial Potential” (Pharmaceuticals, 2025).
Converted amounts (≈) assume the structure as drawn. Where two headings read alike, the source gives them in different places.

Columns and labels:
Streptococcus mutans = test: MIC and MBC evaluation (broth microdilution, agar plate assay); type: cell-based
Procedure: (§1) The MIC and MBC assessment on the pathogenic bacteria and the candidate probiotic lactic acid bacteria was carried out by the broth microdilution assay (BMD) and the agar plate assay, respectively, as described in [4]. The metabolic (dehydrogenase) activity of the lactic acid bacteria was assessed as described in [4].
(§2) P. aeruginosa PAO1 ATCC 15692 was purchased from the American Type Cell Culture Collection (ATCC, Manassas, VA, USA). S. mutans DSM 20523 was bought from the German Collection of Microorganisms and Cell Cultures (DSMZ GmbH, Braunschweig, Germany). All other bacteria and strains were purchased as described in [4].

Streptococcus pyogenes [1] = test: as above; type: cell-based; settings: for MBC/MIC ratio, S. pyogenes: bactericidal if ≤ 4, bacteriostatic if > 4
Procedure: as §1, §2

Enterococcus faecalis [2] = test: as above; type: cell-based; settings: for MBC/MIC ratio, E. faecalis: bactericidal if ≤ 4, bacteriostatic if > 4
Procedure: as §1, §2

[3] = test system: panel of cancer cell lines; design: method as in PMID 39454890; settings: ref [48]; read-out: IC50 against a panel of cancer cell lines; cited from earlier work
CCL-1 cell line = test: Live-cell imaging with Hoechst for apoptosis detection; type: cell-based; settings: positive control, 5 to 72 h
Procedure: Cell suspension was seeded in the same manner as for MTT, but 50 µL per well in 96-well clear bottom plates. […] For the hypertonic buffer, the exposure time was 2 h, and the cells were plated at twice the concentration as for the MTT and cytopathic tests in order to comply with the kit protocol.
At least two wells were seeded as replicates, and at least two photographs were taken for all samples and treatments, stained with dyes or not.

[4] = test system: Pseudomonas aeruginosa PAO1; test: MIC and MBC evaluation (broth microdilution, agar plate assay); type: cell-based
Procedure: as §1, §2

[5] = test system: Human gingival fibroblasts (HGF); test: MTT assay for cytotoxicity; type: cell-based
Procedure: (§3) The MTT assay was performed according to Annex C, ISO 10993-5 [56] as in [116]. The panel of non-tumorigenic cell lines consisted of one murine (CCL-1 fibroblasts, which are recommended as a standard for cytotoxicity evaluation in Annex C of ISO 10993-5 [56]) and four human cell lines—HaCaT (immortalized epidermal keratinocytes), HGF (gingival fibroblasts), HEK-293 (embryonic cells from kidney epithelium), and HEPG2 (hepatoblastoma). Although technically a cancer cell line, HEPG2 is non-tumorigenic and retains many hepatocyte-related features in its proteome and a high degree of morphological and functional differentiation, also being a stage one hepatoblastoma.
(§4) CCL-1 was purchased from ATCC and HaCaT and HGF were bought from CLS Cell Lines Service (GmbH, Eppelheim, Germany). HEK-293 and HEPG2 were obtained from DSMZ. The cell culture medium for HaCaT and HEPG2 was Dulbecco’s Modified Eagle Medium (DMEM) with 4.5 g/L glucose (DMEM-HA). For HGF it was DMEM/F-12 (DMEM-12-A, a 1:1 mixture of DMEM and Ham’s F-12 medium). The cell medium for CCL-1 and HEK-293 was Eagle’s Minimum Essential Medium (MEM) (MEM-A). Ten percent heat-inactivated fetal bovine serum (FBS) was added to all media but to the one for the CCL-1 cells, to which 10% heat-inactivated horse serum was added. All media were supplemented with 2 mM L-glutamine and Penicillin/Streptomycin (Pen/Strep, 100×). The cell culture media, sera, and additives were from Capricorn Scientific (Düsseldorf, Germany).
(§5) GraphPad Prism software version 9 (GraphPad Software Inc., San Diego, CA, USA) was used to calculate the IC50 values from the MTT assays as in [116], as well as the MTC values, and the ELISA standard curves. The MTC values are, according to ISO 10993-5, the maximum concentration at which at least 70% of the cells are viable (nonlin fit, range).

[6] = test system: Human embryonic kidney-293 (HEK-293); test: MTT assay for cytotoxicity; type: cell-based
Procedure: as §3, §4, §5

CCL-1 = test: MTT assay for cytotoxicity; type: cell-based, murine
Procedure: as §3, §4, §5

Staphylococcus aureus [7] = settings: ref [4],[29]; cited from earlier work
Streptococcus pyogenes [8] = settings: ref [4],[29]; cited from earlier work
HEPG2 = test: MTT assay for cytotoxicity; type: cell-based, human
Procedure: as §3, §4, §5

HaCaT = test: MTT assay for cytotoxicity; type: cell-based, human
Procedure: as §3, §4, §5

[9] = test system: Methicillin-Resistant S. aureus (MRSA); settings: ref [4],[29]; cited from earlier work
Staphylococcus aureus [10] = test: MIC and MBC evaluation (broth microdilution, agar plate assay); type: cell-based; settings: for MBC/MIC ratio, S. aureus: bactericidal if ≤ 4, bacteriostatic if > 4; for MBC: read-out: Minimal bactericidal concentration (MBC), Staphylococcus aureus
Procedure: as §1, §2

Enterococcus faecalis [11] = settings: ref [4],[29]; cited from earlier work
[12] = test system: Methicillin-Resistant S. aureus (MRSA); test: MIC and MBC evaluation (broth microdilution, agar plate assay); type: cell-based, Staphylococcus aureus; settings: for MBC/MIC ratio, MRSA: bactericidal if ≤ 4, bacteriostatic if > 4
Procedure: as §1, §2

For Penicillin [reference compound], the “MBC for S. mutans” value (Streptococcus mutans) was 2 µg/mL, the “MIC for S. mutans” value (Streptococcus mutans) was 0.03 µg/mL and the “MBC/MIC ratio, Streptococcus mutans” value (Streptococcus mutans; bactericidal if ≤ 4, bacteriostatic if > 4) was 66. The “MBC, Streptococcus pyogenes” value (Streptococcus pyogenes [1]) was 0.25 µg/mL, the “MBC/MIC ratio, S. pyogenes” value (Streptococcus pyogenes [1]) was 3 and the “MBC, Enterococcus faecalis” value (Enterococcus faecalis [2]) was 20 µg/mL. For the same compound, the “MBC/MIC ratio, E. faecalis” value (Enterococcus faecalis [2]) was 8.
For Cerastioside A, the IC50 [3] is given as 107 to 198 µM.
In the case of `COc1cccc2c1C(=O)c1c(O)c3c(c(O)c1C2=O)C[C@@](O)(C(C)=O)C[C@@H]3O[C@H]1C[C@H](N)[C@H](O)[C@H](C)O1` [daunorubicin, reference compound], the “Highly condensed and shrunken nuclei (marker of apoptosis)” value (CCL-1 cell line) is reported as “not in samples treated with daunorubicin”.
`C[C@@H](O)[C@H]1C(=O)N2C(C(=O)O)=C(S[C@@H]3CN[C@H](C(=O)N(C)C)C3)[C@H](C)[C@H]12` [Meropenem, reference compound] gave an MBC ([4]; Pseudomonas aeruginosa, PAO1) of 6.4 µg/mL (≈ 16.7 µM) and an MIC ([4]; Pseudomonas aeruginosa, PAO1) of 1.6 µg/mL (≈ 4.17 µM).
In the case of Olympiforin A, the “Maximum tolerated concentration (MTC), HGF” value [5] is reported as 16.78 µg/mL, the “IC50, HGF” value ([5]; MTT assay) is reported as 19.44 µg/mL and the IC50 ([5]; converted to µM) is reported as 39.1 µM. The “Maximum tolerated concentration (MTC), HEK-293” value [6] was 0.41 µg/mL, the “IC50, HEK-293” value ([6]; MTT assay) was 0.69 µg/mL and the IC50 ([6]; converted to µM) was 1.39 µM. For the same compound, the “Maximum tolerated concentration (MTC), CCL-1” value (CCL-1) was 3.27 µg/mL, the “IC50, CCL-1” value (CCL-1; MTT assay) was 6.13 µg/mL and the IC50 (CCL-1; converted to µM) was 12.3 µM. For the same compound, the “MIC on bacteria, S. aureus” value (Staphylococcus aureus [7]) was 0.78 µg/mL, the “MIC on bacteria, S. pyogenes” value (Streptococcus pyogenes [8]) was 12.5 µg/mL and the “Maximum tolerated concentration (MTC), HEPG2” value (HEPG2) was 2.51 µg/mL. The “IC50, HEPG2” value (HEPG2; MTT assay) was 6.87 µg/mL, the IC50 (HEPG2; converted to µM) was 13.8 µM and the “Maximum tolerated concentration (MTC), HaCaT” value (HaCaT) was 0.47 µg/mL. The “IC50, HaCaT” value (HaCaT; MTT assay) was 1.33 µg/mL, the IC50 (HaCaT; converted to µM) was 2.68 µM and the “MIC on bacteria, MRSA” value [9] was 12.5 µg/mL. The “Minimal bactericidal concentration (MBC), Staphylococcus aureus” value (Staphylococcus aureus [10]) was 25 µg/mL, the “MBC/MIC ratio, S. aureus” value (Staphylococcus aureus [10]) was 32 and the MBC (Staphylococcus aureus [10]) was 50 µM. The “MBC, Pseudomonas aeruginosa PAO1” value [4] was 2713 µg/mL, the “MIC, Pseudomonas aeruginosa PAO1” value [4] was 1356 µg/mL and the MBC (Streptococcus pyogenes [1]) was 1008 µM. The “MBC, Streptococcus pyogenes” value (Streptococcus pyogenes [1]) was 500 µg/mL, the “MBC/MIC ratio, S. pyogenes” value (Streptococcus pyogenes [1]) was 40 and the MBC (Enterococcus faecalis [2]) was 252 µM. For the same compound, the “MBC, Enterococcus faecalis” value (Enterococcus faecalis [2]) was 125 µg/mL, the “MBC/MIC ratio, E. faecalis” value (Enterococcus faecalis [2]) was 10 and the “MIC on bacteria, E. faecalis” value (Enterococcus faecalis [11]) was 12.5 µg/mL. For the same compound, the MBC [12] was 171 µM, the “MBC, Methicillin-Resistant S. aureus (MRSA)” value [12] was 85 µg/mL and the “MBC/MIC ratio, MRSA” value [12] was 7.
With `CNC(C)C1CCC(N)C(OC2C(N)CC(N)C(OC3OCC(C)(O)C(NC)C3O)C2O)O1` (centres unmarked) [Gentamicin, reference compound] the MBC (Staphylococcus aureus [10]; Staphylococcus aureus) was 1.9 µg/mL, the “MBC/MIC ratio, S. aureus” value (Staphylococcus aureus [10]) was 8 ^5 and the MBC (Enterococcus faecalis [2]; Enterococcus faecalis) was 72 µg/mL. For the same compound, the “MBC/MIC ratio, E. faecalis” value (Enterococcus faecalis [2]) was 9, the MBC ([12]; Staphylococcus aureus, MRSA) was 2.5 µg/mL and the “MBC/MIC ratio, MRSA” value [12] was 20.
